Experimental data as given in US10787425B2, “Thiazolidinedione derivative and use thereof” (INDUSTRY-ACADEMIC COOPERATION FOUNDATION CHOSUN UNIVERSITY, priority 2016, dated 2020).

Tests used:
15-PGDH = 15-PGDH (Homo sapiens (Human), UniProt P15428); test: 15-PGDH inhibitory activity (NADH at 340 nm); assay type: biochemical; settings: concentration inhibiting 50% of 15-PGDH activity; purified 15-PGDH, 21 μM PGE2, 0.25 mM NAD+
Summary of the method: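 GST-purified human 15-PGDH (E. coli BL-21 LysS, 10 μg) with 21 μM PGE2 and 0.25 mM NAD+ in 50 mM Tris-HCl pH 7.5, 0.1 mM DTT. Compound tested at 0.0001–64 μM; NADH formation read by absorbance at 340 nm against a standard curve.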

A549 cells = test: Measurement of PGE2 concentration in A549 cell medium (ELISA); assay type: cell-based, human; settings: for Increment %: PGE2 concentration versus PBS control, 5 μM, 12 hours; for PGE2 concentration: inhibitor 5 μM, medium collected after 12 hours, ELISA
Summary of the method: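 A549 cells in RPMI 1640 with 8% FBS, seeded at 5×10^5 cells/well and grown 24 h at 37° C, 5% CO2; at ~80% confluence treated with 15-PGDH inhibitor at 5 μM in PBS (PBS-only negative control). After 12 h, PGE2 in the medium was measured by ELISA against a standard curve.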

15-PGDH, sequence (P15428 whole entry): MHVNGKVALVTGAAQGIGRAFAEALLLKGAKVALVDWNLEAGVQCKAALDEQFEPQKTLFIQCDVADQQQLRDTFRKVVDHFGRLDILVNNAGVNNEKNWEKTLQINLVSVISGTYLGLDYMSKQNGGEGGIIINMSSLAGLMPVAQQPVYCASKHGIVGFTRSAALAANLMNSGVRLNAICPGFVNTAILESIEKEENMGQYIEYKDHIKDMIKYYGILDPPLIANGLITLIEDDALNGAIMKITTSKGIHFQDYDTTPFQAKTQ

SMILES: CCOc1cc(/C=C2\SC(=O)NC2=O)ccc1OC(=O)Cc1ccccc1 [Compound 57, (Z)-4-((2,4-dioxothiazolidin-5-ylidene)methyl)-2-ethoxyphenyl 2-phenylacetate]
- IC50 (15-PGDH): 118 nM
- Increment % (A549 cells): −17.46%
- PGE2 concentration (A549 cells): 131.3485 pg/mL

SMILES: CCOc1cc(/C=C2\SC(=O)NC2=O)ccc1OC(=O)c1ccccc1.O=C(O)c1ccccc1 [Compound 56, (Z)-4-((2,4-dioxothiazolidin-5-ylidene)methyl)-2-ethoxyphenyl benzoate]
- IC50 (15-PGDH): 298 nM
- Increment % (A549 cells): −31.65%
- PGE2 concentration (A549 cells): 108.7675 pg/mL

SMILES: O=C1NC(=O)/C(=C/c2ccc(OC(=O)C3CC3)cc2Cl)S1 [Compound 91, (Z)-3-chloro-4-((2,4-dioxothiazolidin-5-ylidene)methyl)phenyl cyclopropanecarboxylate]
- IC50 (15-PGDH): 1080 nM
- Increment % (A549 cells): −4.5498%
- PGE2 concentration (A549 cells): 106.5773 pg/mL

SMILES: CCOc1cc(/C=C2\SC(=O)NC2=O)ccc1OC(=O)C1CCC1 [Compound 47, (Z)-4-((2,4-dioxothiazolidin-5-ylidene)methyl)-2-ethoxyphenyl cyclobutanecarboxylate]
- IC50 (15-PGDH): 1620 nM
- Increment % (A549 cells): −32.43%
- PGE2 concentration (A549 cells): 185.1274 pg/mL

SMILES: O=C(CCCc1ccccc1)Oc1ccc(/C=C2\SC(=O)NC2=O)cc1 [Compound 74, (Z)-4-((2,4-dioxothiazolidin-5-ylidene)methyl)phenyl 4-phenylbutanoate]
- IC50 (15-PGDH): 50.7 nM
- Increment % (A549 cells): 27.71%
- PGE2 concentration (A549 cells): 164.9677 pg/mL

SMILES: CCOc1cc(/C=C2\SC(=O)NC2=O)ccc1OC(=O)CCCCC1CCCCC1 [Compound 55, (Z)-4-((2,4-dioxothiazolidin-5-ylidene)methyl)-2-ethoxyphenyl 5-cyclohexylpentanoate]
- IC50 (15-PGDH): 34.4 nM
- Increment % (A549 cells): 7.8%
- PGE2 concentration (A549 cells): 295.349 pg/mL

SMILES: O=C(CCCCc1ccccc1)Oc1ccc(/C=C2\SC(=O)NC2=O)cc1Br [Compound 30, (Z)-2-bromo-4-((2,4-dioxothiazolidin-5-ylidene)methyl)phenyl 5-phenylpentanoate]
- IC50 (15-PGDH): 23.5 nM
- Increment % (A549 cells): 42.35%
- PGE2 concentration (A549 cells): 280.7203 pg/mL

SMILES: O=C(CCc1ccccc1)Oc1ccc(/C=C2\SC(=O)NC2=O)cc1Cl [Compound 13, (Z)-2-chloro-4-((2,4-dioxothiazolidin-5-ylidene)methyl)phenyl 3-phenylpropanoate]
- IC50 (15-PGDH): 41.8 nM
- Increment % (A549 cells): 16.39%
- PGE2 concentration (A549 cells): 139.2902 pg/mL

SMILES: O=C1NC(=O)/C(=C/c2ccc(OC(=O)C3CCCC3)cc2Cl)S1 [Compound 93, (Z)-3-chloro-4-((2,4-dioxothiazolidin-5-ylidene)methyl)phenyl cyclopentanecarboxylate]
- IC50 (15-PGDH): 71 nM
- Increment % (A549 cells): 2.9785%
- PGE2 concentration (A549 cells): 114.9832 pg/mL

SMILES: O=C(CCCCC1CCCCC1)Oc1ccc(/C=C2\SC(=O)NC2=O)cc1Cl [Compound 10, (Z)-2-chloro-4-((2,4-dioxothiazolidin-5-ylidene)methyl)phenyl 5-cyclohexylpentanoate]
- IC50 (15-PGDH): 31.7 nM
- Increment % (A549 cells): 89.99%
- PGE2 concentration (A549 cells): 520.1337 pg/mL

SMILES: O=C(Cc1ccccc1)Oc1cccc(/C=C2\SC(=O)NC2=O)c1Cl [Compound 87, (Z)-2-chloro-3-((2,4-dioxothiazolidin-5-ylidene)methyl)phenyl 2-phenylacetate]
- IC50 (15-PGDH): 105 nM
- Increment % (A549 cells): 89.77%
- PGE2 concentration (A549 cells): 399.2994 pg/mL

SMILES: O=C(CCCCC1CCCCC1)Oc1cccc(/C=C2\SC(=O)NC2=O)c1Cl [Compound 85, (Z)-2-chloro-3-((2,4-dioxothiazolidin-5-ylidene)methyl)phenyl 5-cyclohexylpentanoate]
- IC50 (15-PGDH): 25.6 nM
- Increment % (A549 cells): −7.79%
- PGE2 concentration (A549 cells): 194.0212 pg/mL

SMILES: O=C(CC1CCCC1)Oc1ccc(/C=C2\SC(=O)NC2=O)cc1Br [Compound 19, (Z)-2-bromo-4-((2,4-dioxothiazolidin-5-ylidene)methyl)phenyl 2-cyclopentylacetate]
- IC50 (15-PGDH): 19.8 nM
- Increment % (A549 cells): −8.11%
- PGE2 concentration (A549 cells): 232.5151 pg/mL
